Experimental data published in article PMC5341033, “Transcriptomic insight into terpenoid and carbazole alkaloid biosynthesis, and functional characterization of two terpene synthases in curry tree (Murraya koenigii)” (Scientific Reports, 2017).

Experiments:
MkTPS2 = biological target: T1, MkTPS2 (Murraya koenigii, UniProt A0A1U9M7X9); experiment: terpene synthase assay, SPME GC-MS of products; format: biochemical; details: 70 μM FPP; 1 mM MgCl2, 5 mM DTT, 30 mM HEPES pH 7.5, 30 °C 2 h; product (E,E)-α-farnesene
T1 construct: full-length ORF, 560 aa; E. coli Rosetta-2; Ni-NTA purified
T1 sequence (A0A1U9M7X9 entry or part of it): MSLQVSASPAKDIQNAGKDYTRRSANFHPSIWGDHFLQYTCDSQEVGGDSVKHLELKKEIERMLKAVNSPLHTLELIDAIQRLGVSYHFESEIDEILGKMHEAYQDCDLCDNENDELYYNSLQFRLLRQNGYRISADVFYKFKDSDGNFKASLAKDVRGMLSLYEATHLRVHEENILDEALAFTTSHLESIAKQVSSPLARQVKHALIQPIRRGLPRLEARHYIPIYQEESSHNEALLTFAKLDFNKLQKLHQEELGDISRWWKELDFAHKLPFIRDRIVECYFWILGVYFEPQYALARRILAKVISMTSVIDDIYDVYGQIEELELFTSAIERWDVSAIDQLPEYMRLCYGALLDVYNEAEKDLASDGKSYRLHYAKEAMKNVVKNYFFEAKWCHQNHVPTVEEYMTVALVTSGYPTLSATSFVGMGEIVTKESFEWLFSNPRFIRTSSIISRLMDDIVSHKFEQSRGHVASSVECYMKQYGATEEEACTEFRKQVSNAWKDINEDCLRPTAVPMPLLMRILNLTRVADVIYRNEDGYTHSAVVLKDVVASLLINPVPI

MkTPS1 = biological target: T2, MkTPS1 (Murraya koenigii, UniProt A0A1U9M7Y9); experiment: terpene synthase assay, SPME GC-MS of products; format: biochemical; details: 70 μM GPP; 1 mM MgCl2, 5 mM DTT, 30 mM HEPES pH 7.5, 30 °C 2 h; product (−)-sabinene
T2 construct: plastid transit peptide truncated at Met-40; full length 602 aa; E. coli Rosetta-2; Ni-NTA purified
T2 sequence (A0A1U9M7Y9 entry or part of it): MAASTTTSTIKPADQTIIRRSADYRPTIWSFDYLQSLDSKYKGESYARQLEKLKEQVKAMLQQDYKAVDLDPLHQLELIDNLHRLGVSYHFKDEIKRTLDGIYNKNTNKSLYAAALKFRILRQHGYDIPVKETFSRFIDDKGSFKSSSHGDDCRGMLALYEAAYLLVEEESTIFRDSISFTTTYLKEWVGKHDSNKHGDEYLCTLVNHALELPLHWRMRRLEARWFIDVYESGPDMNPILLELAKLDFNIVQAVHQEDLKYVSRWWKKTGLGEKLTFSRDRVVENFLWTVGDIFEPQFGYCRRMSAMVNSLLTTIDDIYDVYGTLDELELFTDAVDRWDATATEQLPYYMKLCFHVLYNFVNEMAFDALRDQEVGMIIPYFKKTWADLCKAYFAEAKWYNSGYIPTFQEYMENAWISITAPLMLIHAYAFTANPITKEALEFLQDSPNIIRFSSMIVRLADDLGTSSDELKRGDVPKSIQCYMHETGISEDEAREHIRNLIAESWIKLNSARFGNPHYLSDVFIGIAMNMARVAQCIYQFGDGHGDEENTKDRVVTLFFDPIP

Compound	terpene synthase assay, SPME GC-MS of products (MkTPS2)	terpene synthase assay, SPME GC-MS of products (MkTPS1)
CC(C)=CCC/C(C)=C/CC/C(C)=C/COP(=O)(O)OP(=O)(O)O [farnesyl diphosphate]	MkTPS2, the product analysis showed the formation of α-farnesene with FPP as substrate	–
CC(C)=CCC/C(C)=C/COP(=O)(O)OP(=O)(O)O [geranyl diphosphate]	–	MkTPS1 showed the formation of predominantly sabinene utilizing GPP as substrate
